Assay results reported in patent US6458549B2, “Methods of diagnosing renal salt wasting syndrome and Alzheimer's disease and methods of treating the same” (Winthrop-University Hospital, priority 1998, dated 2002).
Entries after “also recorded” stand apart in the source; their conditions may differ.

How the values were obtained:
[1] = tested on: LLC-PK1 cells; assay: TUNEL apoptosis assay (apoptotic index) in cultured LLC-PK1 cells; assay type: cell-based, pig; settings: for AI: 2 h; for Apoptotic activity (in words): substance alone
Method: Cell Culture and Assay Protocol. LLC-PK1, a pig kidney epithelial cell line was plated at a density of 10^3 cells per well into eight-well Permanox plastic chamber slides (NUNC, Naperville, Ill.). The cells were cultured at 37° C. in 5% CO2 in humidified incubators and grown for 3 days to 70-80% confluency in DMEM-F12 that was supplemented with 10% fetal calf serum, 7.5% sodium bicarbonate, 15 mM HEPES, 200 mM L-Glutamate, 100 u penicillin and 0.1 ug/ml streptomycin (Life Technologies, Gaithersburg, Md.). The culture fluid was then removed and cells were exposed to plasma from control individuals, Alzheimer's disease patients or multi-infarct dementia patients diluted 1:5 in fresh DMEM-F12 media, supplemented as above, for 2 h at 37° C. The cells were then rinsed in PBS, and fixed in 4% formaldehyde in PBS for 10 min., permeabilized with 0.5% Triton X-100 (Sigma Chemical CO., St. Louis, Mo.) for 5 min. and washed in 4 changes of distilled water. A positive control was obtained by exposing cells to 0.6 mM H2O2 diluted in DMEM-F12 for 2 h.
Apoptosis Assay (TUNEL): Nuclear DNA fragmentation consistent with apoptosis was determined by the method of TdT-mediated dUTP-biotin nick-end labeling (TUNEL) (Y. Gavrieli et al., J. Cell. Biol. 119:493-501, 1992). The ApopDetek cell death assay kit (Enzo, Farmingdale, N.Y.) was used utilizing terminal deoxynucleotide transferase to incorporate Bio-16-dUTP onto the 3′-OH termini in the DNA of apoptotic cells, subsequent binding with streptavidin-horseradish peroxidase, and visualization after conversion of the substrate and chromagen (hydrogen peroxide and aminoethylcarbazole) into a localized brick red precipitate. A blue counter stain was also used. Slides were then observed for morphologically irregular and condensed nuclei which contain dark red precipitate to indicate TUNEL-positive cells using a Nikon (Nikon, Inc., Melville, N.Y.) Optiphot microscope. Five to six random field totaling approximately 1,000 to 1,500 cells were counted per slide. Apoptotic index (AI), defined as the percent of cells undergoing apoptosis, is calculated by dividing the number of positive nuclei by the total number of nuclei counted multiplied by 100. […]
Effect of Protein Synthesis on Apoptotic Activity. LLC-PK1 cells were exposed to Alzheimer's disease and control plasma in the absence and presence of cycloheximide (0.2-200 uM) (Sigma, St. Louis, Mo.). Apoptotic index was measured in these cells by TUNEL assay.
Effect of Calcium Depletion on Factor Activity. The TUNEL assay was performed in the usual manner except for substituting DMEM-F12 with calcium-free DMEM, supplemented with dialyzed 10% fetal calf serum (Life Technologies, Grand Island, N.Y.) and 0.6 mM EGTA to chelate calcium. Dialyzed Alzheimer's disease and control plasma were then added to the calcium-free media for 2 h at 37° C. and a TUNEL assay performed.
Contribution of Known Apoptotic Inducers. To test the possibility that the apoptotic factor in Alzheimer's disease plasma was β amyloid, TNF-α or myeloma light chain, the TUNEL assay was repeated as above after a 2 h incubation at 37° C. with […] β amyloid (Peninsula Laboratories, Inc., Belmont, Calif.), 5 pM-3 nM TNF-α (Quantikine, Minneapolis, Minn.) and 3-60 ug λ myeloma light chain, kindly supplied by Dr. Vecihi Batuman, Tulane University School of Medicine, New Orleans, La. To eliminate the possibility that a protease in Alzheimer's disease plasma is responsible for the apoptotic activity, the effect of a broad spectrum protease inhibitor cocktail (Boehringer Mannheim) was studied on apoptotic index using the TUNEL assay. LCC-PK1 cells were incubated with Alzheimer's disease plasma with and without the inhibitor cocktail and assayed as detailed above. This cocktail inhibits a large spectrum of serine, cysteine, and metalloproteases as well as calpains. It consists of aprotinin, leupeptin, EDTA, and pefabloc.

[2] = tested on: human kidney proximal tubule cells; assay: Apoptosis of human kidney proximal tubule cells in culture; assay type: cell-based
Method: Apoptosis Assay (TUNEL): Nuclear DNA fragmentation consistent with apoptosis was determined by the method of TdT-mediated dUTP-biotin nick-end labeling (TUNEL) (Y. Gavrieli et al., J. Cell. Biol. 119:493-501, 1992). The ApopDetek cell death assay kit (Enzo, Farmingdale, N.Y.) was used utilizing terminal deoxynucleotide transferase to incorporate Bio-16-dUTP onto the 3′-OH termini in the DNA of apoptotic cells, subsequent binding with streptavidin-horseradish peroxidase, and visualization after conversion of the substrate and chromagen (hydrogen peroxide and aminoethylcarbazole) into a localized brick red precipitate. A blue counter stain was also used. Slides were then observed for morphologically irregular and condensed nuclei which contain dark red precipitate to indicate TUNEL-positive cells using a Nikon (Nikon, Inc., Melville, N.Y.) Optiphot microscope. Five to six random field totaling approximately 1,000 to 1,500 cells were counted per slide. Apoptotic index (AI), defined as the percent of cells undergoing apoptosis, is calculated by dividing the number of positive nuclei by the total number of nuclei counted multiplied by 100.

TNF-α
AI ([1]; doses as high as 50 pM): 6%

CCCCC[C@H](O)/C=C/[C@@H]1[C@@H](C/C=C\CCCC(=O)O)[C@@H]2C[C@H]1OO2 [Prostaglandin H, prostaglandin H2]
Effect on apoptosis (in words) ([2]; substance alone): did not increase apoptosis

Prostaglandins E [Prostaglandin E]
Effect on apoptosis (in words) ([2]; substance alone): did not increase apoptosis

β-amyloid
AI ([1]; 50 uM in media): 6.1±3.1%
Apoptotic activity (in words) [1]: No detectable apoptotic activity

CCCCC[C@H](O)C/C=C1/C(=O)C=C[C@@H]1C/C=C\CCCC(=O)O [-Δ^12Prostaglandin J2]
Effect on apoptosis (in words) ([2]; addition of Δ12Prostaglandin J2 to Indomethacin): increased apoptosis
Effect on apoptosis (in words) ([2]; combination of Indomethacin, Prostaglandin D2 Synthase and Δ12Prostaglandin J2): increased apoptosis
Effect on apoptosis (in words) ([2]; substance alone): induces apoptosis; also recorded: increased apoptosis to the same degree as prostaglandin D2 synthase
Effect on apoptosis (in words) ([2]; substance alone, listed as -Δ^12prostaglandin J2): induces apoptosis
Apoptotic activity (in words) [1]: increases the rate of apoptosis

COc1ccc2c(c1)c(CC(=O)O)c(C)n2C(=O)c1ccc(Cl)cc1 [Indomethacin]
Effect on apoptosis (in words) ([2]; simultaneous addition of Indomethacin and Prostaglandin D2 Synthase): did not increase apoptosis above baseline
Effect on apoptosis (in words) ([2]; substance alone): inhibited apoptosis to baseline

CCCCC[C@H](O)/C=C/[C@H]1C(=O)C[C@H](O)[C@@H]1C/C=C\CCCC(=O)O [Prostaglandin D, prostaglandin D2]
Effect on apoptosis (in words) ([2]; substance alone): did not increase apoptosis

CCN1C(=O)C=CC1=O [N-Ethyl Maleimide]
Effect on apoptosis (in words) ([2]; deactivation/inhibition of Prostaglandin D2 Synthase by N-Ethyl Maleimide): inhibited apoptosis

C[C@@H]1C[C@@H]([C@H](O)CC2CC(=O)NC(=O)C2)C(=O)[C@@H](C)C1 [Cycloheximide, cycloheximide]
Effect on apoptosis by Alzheimer's disease plasma (in words) ([1]; 200 uM cycloheximide): inhibition of apoptosis
AI (%) ([1]; cycloheximide 200 uM, cells exposed to Alzheimer's plasma): 7.7 ± 1.6%
AI (%) ([1]; cycloheximide 200 uM, cells exposed to control plasma): 6.3 ± 1.5%
AI (%) ([1]; cycloheximide 0.2-20 uM, cells exposed to Alzheimer's plasma): 28.7 ± 4.0%
AI (%) ([1]; cycloheximide 0.2-20 uM, cells exposed to control plasma): 5.0 ± 0.0%
Effect on apoptosis by Alzheimer's disease plasma (in words) ([1]; lower concentrations of cycloheximide): no inhibition of apoptosis

B1: Prostaglandin D2 Synthase: enzyme that converts prostaglandin H2 to prostaglandin D2; identified apoptotic factor (protein, UniProt P41222 23-190, looked up)
Prostaglandin-H2 D-isomerase: APEAQVSVQPNFQQDKFLGRWFSAGLASNSSWLREKKAALSMCKSVVAPATDGGLNLTSTFLRKNQCETRTMLLQPAGSLGSYSYRSPHWGSTYSVSVVETDYDQYALLYSQGSKGPGEDFRMATLYSRTQTPRAELKEKFTAFCKAQGFTEDTIVFLPQTDKCMTEQ
Effect on apoptosis (in words) ([2]; substance alone): increased apoptosis
Increase of apoptosis above control ([2]; substance alone): about four times above control

B2: α1 microglobulin: protein co-found in the 32 Kd band from urine of a renal salt wasting patient (protein, UniProt P02760 20-203, looked up)
Alpha-1-microglobulin: GPVPTPPDNIQVQENFNISRIYGKWYNLAIGSTCPWLKKIMDRMTVSTLVLGEGATEAEISMTSTRWRKGVCEETSGAYEKTDTDGKFLYHKSKWNITMESYVVHTNYDEYAIFLTKKFSRHHGPTITAKLYGRAPQLRETLLQDFRVVAQGVGIPEDSIFTMADRGECVPGEQEPEPILIPRV
modifications: Alpha-1-microglobulin
notes: protein co-found in the 32 Kd band from urine of a renal salt wasting patient
Apoptotic activity (in words) [1]: no apoptotic activity
